Laboratory results from a melting point compilation (Tetko et al.; mined from patent text by program, amines drawn as free bases though some values may be those of a salt).

Row | SMILES | melting point [°C]
1 | Cc1ccc(-c2nc(O)cc(-c3ccccc3)n2)cc1 | 282 to 283
2 | N#Cc1c(Cl)nc2ccc([N+](=O)[O-])cc2c1Cl | 190 to 192
3 | O=C(Cc1ccccc1)N1CCC2(c3cccc(O)c3)CCCC2C1 (centres undefined) | 135 to 137
4 | Fc1ccc(Cn2c(NC3CCN(CCNc4nccs4)CC3)nc3cncnc32)cc1 | 165
5 | O=C1CN(N=Cc2ncc(-c3ccc(F)cc3)o2)C(=O)N1 | 281 to 282
6 | CCCCc1nn2ccccc2c1C(=O)c1ccc(C#N)cc1 | 116
7 | O=C(Nc1ccccc1-c1ccc(Cl)cc1F)c1cccnc1Cl | 124 to 126
8 | CCOC(=O)CCCN(C(=O)c1ccc(Cl)cc1)c1cccc2ccc(OC)cc12 | 92 to 94
9 | CC(C)(C)OC(=O)N1CCC(c2nc3cc(-c4ccc(C(F)(F)F)cc4)ccc3o2)CC1 | 166 to 169
10 | COc1cccc(Cc2nc3n(-c4c(Cl)cc(Cl)cc4Cl)[nH]c(SC)c-3c(=O)n2)c1 | 245 to 248
11 | Brc1ccc(Cn2cncn2)cc1 | 77 to 79
12 | Cc1noc(NS(=O)(=O)c2ccccc2-c2ccc(-c3ncco3)cc2Cn2ccnc2C(C)C)c1C | 184 to 188
13 | CC(CC(C)(C)OOC(=O)NC1CCCCC1)OC(=O)NC1CCCCC1 (centres undefined) | 224 to 226
14 | Cn1ccnc1Sc1ccc(Nc2c(C#N)cnc3cc(/C=C/CCCN4CCCC4)ccc23)cc1Cl | 217 to 222
15 | CC(=O)c1ccc(CBr)s1 | 58 to 59
16 | COCOc1ccc(CCc2c(CC(N)=O)cc(OC)c(OC)c2OC)cc1OCc1ccccc1 | 73 to 74
17 | CON1C=C2N=NC3=C(N2C1)N(c1ccccc1Cl)CC=C3 | 190 to 193
18 | CNC(=O)Nc1ccc(OCCCN2CCN(c3ccccc3)CC2)c(OC)c1 | 167 to 169
19 | Cc1[nH]c(=O)ccc1C(=O)c1ccccc1 | 185 to 187
20 | CN1C(=O)C2(COc3cc4c(cc32)OCCO4)c2c(NC(=O)C3CCC3)cccc21 (centres undefined) | 234 to 236
21 | COc1nc(OC)nc(-n2cnc(SC)n2)n1 | 160
22 | CCCCCCCCCCCCCCCCCCNC(=O)C(N)=O | 169
23 | COc1ccc(C)cc1-c1cc2ccccc2[nH]1 | 119
24 | C[C@@H](N(C(=O)CN)C(=O)c1ccc(C(F)(F)F)cc1)[C@](O)(Cn1cncn1)c1ccc(F)cc1F (relative stereo) | 147 to 148
25 | CNC(=C[N+](=O)[O-])NCCSCc1csc(CN2CCCCC2)c1 | 101 to 103
26 | CCC1(O)CC(=O)OCc2c1cc1n(c2=O)Cc2cc3ccc(F)cc3nc2-1 (centres undefined) | > 250
27 | COCc1c2c(n(Cc3ccccc3)c1-c1ccccc1)C(C)CN(Cc1ccccc1)C2 (centres undefined) | 140 to 141

Now from value to compound:

Row | melting point [°C] | SMILES
28 | 145 to 150 | CC(C)c1ccc(NC(=O)Oc2ccc3c(c2)CCN3Cc2ccccc2)cc1
29 | 95 to 96 | COc1ccc(CNc2c(C)c(C)c3c(c2C)C(c2ccc(C(C)C)cc2)C(C)(C)O3)cc1 (centres undefined)
30 | 155 to 156 | CC(C)n1nc(-c2sc(C(=O)N3CCN(C)CC3)nc2-c2ccccc2)ccc1=O
31 | 144 to 146 | FC(F)(F)CSc1nc2cc(Cl)c(Cl)cc2[nH]1
32 | 222 | CC(=O)NCCNc1ccc(C2=NNC(=O)CC2C)cc1[N+](=O)[O-] (centres undefined)
33 | 158 to 159 | CSCCC(=O)Nc1cc(-c2c(-c3ccc(F)c(C)c3)nc3cccnn23)ccn1
34 | 120 | CCOC(=O)c1ccc(NC(=O)NCCN2CCN=C2c2ccncc2)cc1
35 | 98.5 to 102 | CNC1=NS(=O)N=C1NCCSCc1ccc(CN(C)C)s1 (centres undefined)
36 | 157 to 159 | O=C(NCCNc1c(Cl)cncc1Cl)C1CCN(c2c(Cl)cncc2Cl)CC1
37 | 174 to 176 | COc1ccc(C(=C(c2ccc(C#N)cc2)n2ccnc2)c2ccc(OC)cc2)cc1
38 | 260 | CCOC(=O)C(=NO)c1csc(NC(c2ccccc2)(c2ccccc2)c2ccccc2)n1
39 | 134 to 135 | COC(=O)C1CSC(c2ccc(Oc3ccc(C)cc3O)cc2)N1 (centres undefined)
